Assay results as given in patent US5053215A, “NMR-assayable ligand-labelled trifluorothymidine containing composition and method for diagnosis of HSV infection” (priority 1988, dated 1991).
“Also recorded” adds a separate entry of the source.

Columns and labels:
HSV infected cells = conditions: in vitro, cited from earlier work; for Degradation of phosphorylated drug back to parent compound: HSV infected cells, Smee et al
[1] = TFT (19F) concentration in mouse livers by 19F NMR spectroscopy after i.v. injection; set-up: species or system CBA/J mice; HSV-2 (333 strain); conditions: in vivo, iv, 100 mg/kg, TFT concentration in liver homogenate by 19F NMR (FIG. 3B)
Procedure: (§1) ^19 F assay was carried out in a Nicolet-GE NT-300 NMR spectrometer, using standard techniques with a simple one-pulse sequence. The field was 7.05 Tesla (T) and the frequency was 282 megahertz. Depending upon the volume of the sample available, it was placed :n either a 5 mm or 12 mm diameter tube, which was usually not spun. Both whole liver and liver homogenates were placed in 2 ml of a 2:1 v/v mixture of D2 O: methanol which inactivated HSV, permitted field homogeneity to be optimized and provided field-frequency lock for time averaging. A five-second cycle time was used with a tip angle of 60°. Sweep width was 5000 Hz and 64K data points were collected. Concentration of ^19 F in a sample was evaluated by comparing the electronically integrated area of the resonance peak, after application of 10 Hz line broadening and Fourier transformation of the free induction delays using a 1280 computer, to that of standards containing 10, 50, or 100 μg/ml TFT Instrumental reproducibility of the calculated areas was checked by comparing the integral for the […] standard to that calculated from a scale setting obtained with a 100 μg/ml standard. […]
(§2) In FIG. 3, representative ^19 F NMR spectra was measured with the Nicolet GE NT-300 NMR spectrometer at a field strength of 7.05 T, using a 2:1 v/v D2 O/methanol mixture as a field-frequency lock. […]

[2] = tested on: livers of mice infected with HSV-2; test: as above; set-up: species or system CBA/J mice; HSV-2 (333 strain); conditions: in vivo, iv, 100 mg/kg, 3.5 h
Procedure: as §1, §2

[3] = tested on: murine hepatitis virus (MHV-A59); set-up: species or system CBA/J mice; MHV-A59; conditions: mouse, in vivo
Excerpt: Symbols used: =HSV-2; O=MHV-A 59; Δ=uninfected.

HSV TK = conditions: cited from earlier work
in vivo = conditions: mouse, in vivo, iv
Procedure: (§3) For comparison, TFT levels were measured in the livers of uninfected mice and mice with carbon tetrachloride (CCl4) induced hepatitis.
(§4) HSV-2 (333 strain) was grown and titered in Vero cells as previously described [Rand -t al, J. Med. Virol., Vol. 20, pp. 1-8 (1986).
(§5) The following strains of mice were obtained from the National Cancer Institute: Balb/c, CBA/J, A/HeN, A/J, P/N, and DBA/2N.
(§6) Carbon tetrachloride was dissolved in olive oil for injection. Trifluorothymidine was assayed by high pressure liquid chromatography (HPLC).
(§7) 4-6 week old, 18-23 gm, CBA/J mice were injected intraperitoneally (i.p.) with 1.5 ml of HSV-2 (2-4×10^6 pfu/ml). […] Three days after infection, mice were anesthetized with a 3:1 mixture of 100 mg/ml ketamine HCl:20 mg/ml Xylazine at a dose of 0.2 ml/kg. The jugular vein was surgically exposed, and mice were injected intravenously with 100 or 160 mg/kg of TFT in the appropriate volume of a 20 mg/ml solution in Phosphate Buffered Saline (PBS) pH 7.4. Mice were sacrificed at 45 minutes, 2 hours, 2.5 and 3.5 hours after I.V. injection of TFT. The livers were immediately excised and frozen at -70° C. until they could be studied. For viral titration and measurement of TFT, 1.5 ml of phosphate buffered saline pH 7.4 was mixed with 1 g of liver and the mixture homogenized (10 strokes using a Pyrex Ten Broeck tissue grinder), followed by sonication ×4 for 30 sec. in a Fisher 300 sonic dismembrator at a relative output of 0 55; 0.8 ml of the liver homogenate was mixed with an equal volume of methanol, vortexed extensively and then centrifuged at 15,000×g for 15 minutes. The supernatant was analyzed by HPLC for TFT and the results expressed per gram of liver after correction for dilution. Prior to sonication, 0.5 ml of the liver homogenate was serially diluted in serum free tissue culture media and titrated in triplicate in Vero cells as previously described [Rand et al, supra]. In some experiments the clarified supernatant that had been mixed with methanol as described above was placed in a 5 mm NMR tube and ^19 F content measured by NMR spectroscopy. In other experiments the entire liver was excised, and placed in a 12 mm NMR tube and the ^19 F directly analyzed by NMR spectroscopy.
(§8) Prior to i.p. injection of CCl4 in olive oil, 0.2 ml of blood was collected from each of a group of 5 mice. Twenty-four hours after i.p. injection of 0.1 ml/kg CCl4 in olive oil, blood was collected again, and both sets were analyzed for Alanine Amino Transferase (ALT) and Blood Urea Nitrogen (BUN). For ALT, 2 μl serum was analyzed in duplicate with a Technicon RA 1000 and for BUN 10 μl duplicate samples were analyzed with a Beckman Astra 8. Mice were sacrificed by cervical dislocation and the liver and kidney fixed in 10% formalin, stained with hematoxylin and eosin and examined histologically.
(§9) Therefore, data were analyzed by the non-parametric Mann-Whitney U test.
(§10) In FIG. 1, 1 HSV-2 infected, uninfected and CCl4 treated 4-6 week old CBA/J mice were injected via the jugular vein with 100 mg/kg TFT, and sacrificed at 45 minutes, 2 hours or 3.5 hours later. […] Most of the experiments were done on day 3 after HSV infection; day 2 after infection was not systematically studied, and is presented only for comparison.
(§11) In FIG. 2, the relationship between HSV-2 titer/g liver and TFT concentration/g liver measured by HPLC on day 3 after HSV-2 infection, 2 h (O's) and 2.5 h ( 's) following i.v. administration of TFT. Two separate experiments are shown. Data were analyzed by linear regression.

[4] = tested on: livers of mice infected with HSV-2; test: TFT concentration in livers of HSV-2 infected mice (with uninfected and CCl4 hepatitis controls) by HPLC after i.v. injection
Procedure: as §3, §4, §5, §6, §7, §8, §9, §10, §11

[5] = TFT blood levels after i.v. injection; format: in vivo, CBA/J mice
Procedure: as §6

[6] = in vivo; cited from earlier work
[7] = CCl4 induced hepatitis: Alanine Amino Transferase (ALT), Blood Urea Nitrogen (BUN) and histology; format: in vivo, CBA/J mice
Procedure: Preliminary experiments were then carried out to determine the average ALT levels of HSV-2 infected mice on day 3 at the time higher levels of TFT were found in the liver. […] A dose response curve of CCl4 hepatitis had shown that between 0.015-0.02 ml/kg CCl4 would lead to ALT levels of 500-5000 IU/ml blood. […]

HSV infected tissues = conditions: cited from earlier work
[8] = tested on: optic nerve and chiasm of rats after intraocular inoculation of HSV-1; conditions: rat, in vivo; cited from earlier work
[9] = mouse, in vivo, iv, 160 mg/kg, 2 h

SMILES: O=c1[nH]c(=O)n([C@H]2C[C@H](O)[C@@H](CO)O2)cc1C(F)(F)F [TFT, trifluorothymidine]
- Intracellular accumulation in HSV infected cells (HSV infected cells): intracellular accumulation; also recorded: accumulate in tissue culture
- concentration at 3.5 h [1]: 11000 ng/g
- TFT concentration in liver homogenate by 19F NMR (FIG. 3B) [2]: 11 μg/g liver
- TFT level vs MHV titer [3]: No relationship between MHV titer and TFT level
- Phosphorylation by HSV TK (HSV TK): phosphorylated by the HSV TK
- concentration at 2 h (in vivo; 100 mg/kg, TFT concentration in liver by HPLC, CCl4 hepatitis): < 1000 ng/g
- concentration at 2 h (in vivo; 160 mg/kg, Mean conc. of TFT in liver, infected mice): 110000 ng/g
- concentration at 2 h (in vivo; 160 mg/kg, Mean conc. of TFT in liver, uninfected mice): 14700 ng/g
- TFT levels in livers of HSV-2 infected mice, positive control in MHV experiment ([4]; 2 HSV-2 infected mice with titers of 10^6 pfu HSV/g liver (FIG. 4)): high levels of TFT in liver; also recorded: strikingly elevated levels
- Accumulation of TFT in liver after i.p. injection ([4]; i.p. injection, HSV infected mice): impossible to demonstrate accumulation of TFT in the liver
- TFT levels in livers of HSV-2 infected mice vs uninfected or CCl4 treated mice ([4]; i.v. injection of TFT, 2 and 3.5 hours in FIG. 1 (100 mg/kg), 100 mg/kg): significantly higher levels of TFT in their livers at both 2 and 3.5 hours; also recorded: highly elevated levels of TFT
- Mean conc. of TFT in liver, infected mice [4, 9]: 110.1 μg/g liver
- Mean conc. of TFT in liver, uninfected mice [4, 9]: 14.7 μg/g liver
- TFT levels in liver on day 2 after HSV-2 infection ([4]; viral titers low (10^3 /g liver)): higher levels of TFT could be found in the livers of HSV-2 infected mice on day 2 as well as day 3
- Blood levels of TFT at 45 minutes, difference among groups ([5]; 100 mg/kg i.v., HSV-2 infected, uninfected, CCl4 treated): essentially no difference in blood levels
- Blood levels of TFT at 2 hours ([5]; i.v. injection, 2 hours, any of the groups): no detectable drug at 2 hours in the blood; also recorded: no measurable blood levels
- Blood brain barrier crossing [6]: crosses the blood brain barrier poorly

SMILES: ClC(Cl)(Cl)Cl [CCl4, carbon tetrachloride]
- ALT levels in blood after CCl4 (0.015-0.02 ml/kg), dose response curve ([7]; 0.015-0.02 ml/kg CCl4): 500-5000 IU/ml blood
- Renal function (BUN) after CCl4 ([7]; 0.2 ml/kg i.p.): no significant alternation in renal function
- ALT levels in blood after CCl4 (0.2 ml/kg) ([7]; 0.2 ml/kg in olive oil i.p., a day later, typical range): 20,000-30,000 IU/ml
- Hepatic necrosis after CCl4 ([7]; 0.2 ml/kg in olive oil i.p., a day later / histology): overwhelming hepatic necrosis; also recorded: massive
- ALT after CCl4 (0.02 ml/kg) ([7]; 24 h post treatment, 0.02 ml/kg, N = 12, after receiving 100 mg/kg TFT, Mean ± SD): 18950 ± 7526 IU/L
- BUN after CCl4 ([7]; 24 h post treatment, 0.2 ml/kg i.p., N = 5, Mean ± SD, pre treatment 10.4 + 2.7): 6.4 ± 2.3 mg/dL
- ALT after CCl4 (0.2 ml/kg) ([7]; 24 h post treatment, 0.2 ml/kg i.p., N = 5, Mean ± SD, pre treatment 28.2 ± 13.8): 28112 ± 6086 IU/L
- Hepatic necrosis after low dose CCl4, histology ([7]; dose printed as 0.0 ml/kg): more localized and less extensive

SMILES: Nc1nc2c(ncn2COCCO)c(=O)[nH]1 [acyclovir]
- Degradation of phosphorylated drug back to parent compound (HSV infected cells): rapidly degraded back to acyclovir, and diffused out of the cell
- Intracellular accumulation in HSV infected cells (HSV infected cells): intracellular accumulation; also recorded: accumulate in tissue culture; also recorded: accumulated in the form of phosphorylated intermediates
- Phosphorylation by HSV TK (HSV TK): phosphorylated by the HSV TK
- Selective accumulation of acyclovir in HSV infected tissues in vivo (HSV infected tissues; Price et al): unable to demonstrate any selective accumulation
- Duration of elevated plasma levels of acyclovir (HSV infected tissues; s.c. injection, Biron et al, "remained reasonably elevated"): ≥ 2 h

SMILES: Nc1nc2c(ncn2COCCO)c(=O)[nH]1 [DHPG, 9-(2-Hydroxyethyoxymethyl) guanine]
- Degradation of phosphorylated drug back to parent compound (HSV infected cells): did not hydrolyze back to the parent compound as readily
- Intracellular accumulation in HSV infected cells (HSV infected cells): intracellular accumulation; also recorded: accumulated in a similar manner

SMILES: Cc1cn([C@@H]2O[C@H](CO)[C@@H](O)[C@@H]2F)c(=O)[nH]c1=O [FMAU, 2' fluoro-5-methyl-1-β-D-arabinosyluracil]
- Accumulation of FMAU in choroid plexus and cells lining the ventricular walls [8]: non-specific accumulation
- Concentration of FMAU in optic nerve and chiasm [8]: specific concentration of the drug in the optic nerve and chiasm
